{"source": "patent US10900040B2", "about": "“Methods of reducing or preventing intimal damage caused by mechanical stimulation of endothelial cells” (University of Maryland, Baltimore, priority 2015, dated 2021)", "key": {"SUR1-TRPM4 channel": {"biological_target": "T1, SUR1-TRPM4 channel (Homo sapiens, UniProt Q09428+Q8TD43)", "T1 construct": "endogenous in cells", "T1 sequence (Q09428 whole entry)": "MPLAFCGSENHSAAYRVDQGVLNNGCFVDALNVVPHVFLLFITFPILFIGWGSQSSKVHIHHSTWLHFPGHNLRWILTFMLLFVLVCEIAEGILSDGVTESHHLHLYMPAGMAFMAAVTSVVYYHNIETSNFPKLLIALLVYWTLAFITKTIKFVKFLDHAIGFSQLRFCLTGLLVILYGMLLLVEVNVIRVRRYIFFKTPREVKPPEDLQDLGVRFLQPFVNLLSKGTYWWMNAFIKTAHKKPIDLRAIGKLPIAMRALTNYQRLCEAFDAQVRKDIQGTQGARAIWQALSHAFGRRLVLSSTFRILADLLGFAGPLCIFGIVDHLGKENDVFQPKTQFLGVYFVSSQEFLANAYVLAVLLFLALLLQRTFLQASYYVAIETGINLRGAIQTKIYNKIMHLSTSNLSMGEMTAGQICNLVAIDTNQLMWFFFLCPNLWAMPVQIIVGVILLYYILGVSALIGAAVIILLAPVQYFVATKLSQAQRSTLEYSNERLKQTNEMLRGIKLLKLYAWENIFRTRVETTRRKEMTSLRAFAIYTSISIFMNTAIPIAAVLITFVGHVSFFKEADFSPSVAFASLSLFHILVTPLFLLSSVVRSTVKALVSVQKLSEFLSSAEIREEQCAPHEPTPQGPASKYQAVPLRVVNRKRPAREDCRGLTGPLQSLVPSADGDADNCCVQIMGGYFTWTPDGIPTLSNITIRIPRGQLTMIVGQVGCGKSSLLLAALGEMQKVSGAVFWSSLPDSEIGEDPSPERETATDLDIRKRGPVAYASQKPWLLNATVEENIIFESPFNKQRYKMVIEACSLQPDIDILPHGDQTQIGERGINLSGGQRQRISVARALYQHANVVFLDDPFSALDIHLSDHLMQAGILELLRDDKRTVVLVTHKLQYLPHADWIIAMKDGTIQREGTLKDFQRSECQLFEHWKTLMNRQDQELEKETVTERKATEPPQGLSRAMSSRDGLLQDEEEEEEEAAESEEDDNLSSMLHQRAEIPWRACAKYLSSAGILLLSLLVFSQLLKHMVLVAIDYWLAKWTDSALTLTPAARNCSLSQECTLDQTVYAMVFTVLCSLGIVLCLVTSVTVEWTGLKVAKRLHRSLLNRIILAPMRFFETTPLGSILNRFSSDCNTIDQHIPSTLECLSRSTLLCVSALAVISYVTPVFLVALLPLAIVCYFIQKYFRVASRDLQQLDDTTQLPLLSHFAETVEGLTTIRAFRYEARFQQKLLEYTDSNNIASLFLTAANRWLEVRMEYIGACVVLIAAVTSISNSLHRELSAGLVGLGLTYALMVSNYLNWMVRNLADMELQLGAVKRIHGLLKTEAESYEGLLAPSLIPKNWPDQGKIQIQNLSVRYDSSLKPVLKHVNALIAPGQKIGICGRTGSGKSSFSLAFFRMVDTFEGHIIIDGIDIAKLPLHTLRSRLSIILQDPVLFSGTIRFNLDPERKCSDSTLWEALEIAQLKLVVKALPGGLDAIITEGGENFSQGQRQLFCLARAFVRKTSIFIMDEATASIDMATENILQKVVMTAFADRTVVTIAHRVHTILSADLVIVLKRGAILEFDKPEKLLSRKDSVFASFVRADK", "T1 sequence (Q8TD43 whole entry)": "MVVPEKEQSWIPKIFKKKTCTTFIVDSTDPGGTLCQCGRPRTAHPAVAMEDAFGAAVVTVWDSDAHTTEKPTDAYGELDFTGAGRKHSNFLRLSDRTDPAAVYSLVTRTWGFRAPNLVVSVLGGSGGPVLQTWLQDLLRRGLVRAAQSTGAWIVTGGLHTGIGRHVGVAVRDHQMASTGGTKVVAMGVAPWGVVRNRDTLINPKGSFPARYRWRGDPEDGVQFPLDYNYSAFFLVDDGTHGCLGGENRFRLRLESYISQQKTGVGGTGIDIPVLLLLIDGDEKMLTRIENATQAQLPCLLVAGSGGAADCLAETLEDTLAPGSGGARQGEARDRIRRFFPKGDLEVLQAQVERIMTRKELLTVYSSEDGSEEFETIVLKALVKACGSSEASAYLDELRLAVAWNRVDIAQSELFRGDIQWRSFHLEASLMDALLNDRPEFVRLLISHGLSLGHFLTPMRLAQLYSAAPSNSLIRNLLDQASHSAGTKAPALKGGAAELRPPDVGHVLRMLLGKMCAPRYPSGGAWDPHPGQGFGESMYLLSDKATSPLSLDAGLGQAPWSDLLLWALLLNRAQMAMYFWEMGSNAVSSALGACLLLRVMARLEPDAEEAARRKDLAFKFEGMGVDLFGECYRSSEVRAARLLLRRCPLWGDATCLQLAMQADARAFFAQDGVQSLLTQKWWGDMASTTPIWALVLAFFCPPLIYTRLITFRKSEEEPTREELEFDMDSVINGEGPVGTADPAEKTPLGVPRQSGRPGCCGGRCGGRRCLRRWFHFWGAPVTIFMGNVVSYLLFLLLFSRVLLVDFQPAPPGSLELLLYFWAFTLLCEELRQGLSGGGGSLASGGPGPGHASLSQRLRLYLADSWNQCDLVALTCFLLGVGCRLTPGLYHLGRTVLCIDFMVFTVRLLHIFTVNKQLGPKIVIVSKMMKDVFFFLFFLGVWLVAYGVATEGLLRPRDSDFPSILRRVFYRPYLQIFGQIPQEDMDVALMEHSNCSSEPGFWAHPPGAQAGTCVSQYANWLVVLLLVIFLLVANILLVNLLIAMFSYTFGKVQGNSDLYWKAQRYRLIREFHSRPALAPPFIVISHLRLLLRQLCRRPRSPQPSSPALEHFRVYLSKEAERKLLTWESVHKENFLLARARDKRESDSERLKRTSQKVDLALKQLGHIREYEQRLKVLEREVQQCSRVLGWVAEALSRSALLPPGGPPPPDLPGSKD", "experiment": "Patch clamp recordings of SUR1-TRPM4 channel currents in mechanically stimulated endothelial cells", "format": "cell-based", "settings": "endothelial cells after mechanical stimulation; currents carried by Cs+ ions", "description": "FIGS. 2A and 2B. Mechanical stimulation of endothelial cells causes upregulation of functional SUR1-TRPM4 channels. Endothelial cells were cultured in dishes with flexible bottoms and the cells were mechanically stimulated by applying puffs of air to the underside of the dishes. […] FIG. 2B: Amplitudes of SUR1-TRPM4 channel currents measured at −50 mV under control conditions before mechanical activation (CTR), following mechanical activation (STR), following mechanical activation in the presence of the NF-kappaB inhibitor, pyrrolidine dithiocarbamate (PDTC) as negative control, and without mechanical activation, in the presence of tumor necrosis factor alpha (TNFalpha), as positive control.\nEndothelial cells were cultured in dishes with flexible bottoms and the cells were mechanically stimulated by applying puffs of air to the underside of the dishes. […] NFκB activation caused robust transcriptional upregulation of the SUR1-TRPM4 channels 6 hours later (FIGS. 1B and 1C). […] The critical role of the mechanosensitive transcription factor, NF-κB, in Sur1-Trpm4 channel upregulation was confirmed using the NF-κB inhibitor, pyrrolidine dithiocarbamate (PDTC) as negative control, and the NF-κB activator, tumor necrosis factor α (TNFα), as positive control (FIG. 2B)."}, "TRPM4": {"test_system": "TRPM4", "experiment": "Reduction of TRPM4 expression by antisense oligodeoxynucleotides", "format": "in vivo", "settings": "TRPM4-AS1 and TRPM4-AS2 used together; phosphorothioated", "source_text": "(§1) In certain embodiments of the invention, antagonists of TRPM4 are employed in methods and/or compositions. Antagonists may be of any kind, but in particular embodiments the antagonists are proteins, nucleic acids, small molecules, and so forth. In specific cases, the TRPM4 antagonists comprise flufenamic acid and/or 9-phenanthrol and/or spermine and/or decavanadate and/or BTP2 and/or anti-TRPM4 antibodies. In specific cases, the TRPM4 nucleic acid antagonists comprises RNAi, such as siRNA or shRNA or antisense oligodeoxynucleotides (AS-ODN)."}, "spinal cord injury": {"test_system": "spinal cord injury", "experiment": "Outcome from spinal cord injury after antisense oligodeoxynucleotides", "format": "in vivo", "settings": "TRPM4-AS1 and TRPM4-AS2 used together; phosphorothioated", "source_text": "as §1"}}, "data": [{"molecule": "CNC[C@H](O)[C@@H](O)[C@H](O)[C@H](O)CO", "note": "[N-methyl-D-glucamine]", "values": [{"measurement": "effect on SUR1-TRPM4 channel currents (patch clamp)", "setting": "SUR1-TRPM4 channel", "value": "channel blockade"}]}, {"molecule": "5′-CTGCGATAGCACTCGCCAAA-3′ (chemistry not given here) [TRPM4-AS2, antisense oligodeoxynucleotide against TRPM4]", "values": [{"measurement": "reducing TRPM4 expression", "setting": "TRPM4", "value": "highly effective"}, {"measurement": "improving outcome from spinal cord injury", "setting": "spinal cord injury", "value": "highly effective"}]}, {"molecule": "5′-GTGTGCATCGCTGTCCCACA-3′ (chemistry not given here) [TRPM4-AS1, antisense oligodeoxynucleotide against TRPM4]", "values": [{"measurement": "reducing TRPM4 expression", "setting": "TRPM4", "value": "highly effective"}, {"measurement": "improving outcome from spinal cord injury", "setting": "spinal cord injury", "value": "highly effective"}]}]}
